In the supplement of paper PMC4862054:

Experiments:
Conditions in all cases: incubation time: 72 h
HCC1937 [1] = test: normalised response (% of control), CellTiter-Glo; higher = more viable cells (100 = DMSO, 0 = benzethonium chloride kill control)
Procedure, shortened: (§1)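 Breast cancer cell lines in 20 µl suspension were added to 384-well plates containing compound at 5 concentrations, spaced in 10-fold steps across a 10,000-fold range chosen for each compound, and incubated for 72 h. CellTox Green fluorescence was read at 485/520 nm, followed by CellTiter-Glo luminescence after 10 min at room temperature. Signals on each plate were normalised so that 0.1 % DMSO equals 100 and a positive kill control equals 0. Every value in the table is the normalised signal at one concentration of the series.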

MCF-10A = test: as above
Procedure, shortened: as §1

CAL-85-1 [2] = test: as above
Procedure, shortened: as §1

MDA-MB-468 [3] = test: as above
Procedure, shortened: as §1

CAL-51 [4] = test: as above
Procedure, shortened: as §1

MFM-223 [5] = test: as above
Procedure, shortened: as §1

HCC1599 [6] = test: as above
Procedure, shortened: as §1

HDQ-P1 [7] = test: as above
Procedure, shortened: as §1

BT-474 [8] = test: as above
Procedure, shortened: as §1

CAL-120 [9] = test: as above
Procedure, shortened: as §1

DU-4475 [10] = test: as above
Procedure, shortened: as §1

Hs578T [11] = test: as above
Procedure, shortened: as §1

MDA-MB-231 [12] = test: as above
Procedure, shortened: as §1

CAL-148 [13] = test: as above
Procedure, shortened: as §1

MDA-MB-436 [14] = test: as above
Procedure, shortened: as §1

HCC1143 [15] = test: as above
Procedure, shortened: as §1

BT-549 [16] = test: as above
Procedure, shortened: as §1

SK-BR-3 [17] = test: as above
Procedure, shortened: as §1

MDA-MB-453 [18] = test: as above
Procedure, shortened: as §1

HCC1937 [19] = test: normalised viability (% of control), CellTiter-Blue; higher = more viable cells (100 = DMSO, 0 = benzethonium chloride kill control)
Method: (§2)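 DSRT, CellTiter-Blue viability, 72 h incubation. Signal is normalised to DMSO and benzethonium chloride controls. Value is the normalised response at dose 1.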

CAL-85-1 [20] = test: as above
Method: as §2

MDA-MB-468 [21] = test: as above
Method: as §2

CAL-51 [22] = test: as above
Method: as §2

MFM-223 [23] = test: as above
Method: as §2

HCC1599 [24] = test: as above
Method: as §2

HDQ-P1 [25] = test: as above
Method: as §2

BT-474 [26] = test: as above
Method: as §2

CAL-120 [27] = test: as above
Method: as §2

DU-4475 [28] = test: as above
Method: as §2

Hs578T [29] = test: as above
Method: as §2

MDA-MB-231 [30] = test: as above
Method: as §2

CAL-148 [31] = test: as above
Method: as §2

MDA-MB-436 [32] = test: as above
Method: as §2

HCC1143 [33] = test: as above
Method: as §2

BT-549 [34] = test: as above
Method: as §2

SK-BR-3 [35] = test: as above
Method: as §2

MDA-MB-453 [36] = test: as above
Method: as §2

SMILES | normalised response (HCC1937 [1]) | normalised response (MCF-10A) | normalised response (CAL-85-1 [2]) | normalised response (MDA-MB-468 [3]) | normalised response (CAL-51 [4]) | normalised response (MFM-223 [5]) | normalised response (HCC1599 [6]) | normalised response (HDQ-P1 [7]) | normalised response (BT-474 [8]) | normalised response (CAL-120 [9]) | normalised response (DU-4475 [10]) | normalised response (Hs578T [11]) | normalised response (MDA-MB-231 [12]) | normalised response (CAL-148 [13]) | normalised response (MDA-MB-436 [14]) | normalised response (HCC1143 [15]) | normalised response (BT-549 [16]) | normalised response (SK-BR-3 [17]) | normalised response (MDA-MB-453 [18]) | normalised viability (HCC1937 [19]) | normalised viability (CAL-85-1 [20]) | normalised viability (MDA-MB-468 [21]) | normalised viability (CAL-51 [22]) | normalised viability (MFM-223 [23]) | normalised viability (HCC1599 [24]) | normalised viability (HDQ-P1 [25]) | normalised viability (BT-474 [26]) | normalised viability (CAL-120 [27]) | normalised viability (DU-4475 [28]) | normalised viability (Hs578T [29]) | normalised viability (MDA-MB-231 [30]) | normalised viability (CAL-148 [31]) | normalised viability (MDA-MB-436 [32]) | normalised viability (HCC1143 [33]) | normalised viability (BT-549 [34]) | normalised viability (SK-BR-3 [35]) | normalised viability (MDA-MB-453 [36])
c1ccc2c(CCNc3ccc(Nc4ccncc4)cc3)c[nH]c2c1 [Serdemetan] (1 nM) | 93.9% | 86.1% | 101% | 98.8% | 114% | 98.8% | 115% | 96.7% | 93.8% | 96.8% | 95.7% | 99.2% | 97.1% | 91% | 86.4% | 98.5% | 102% | 104% | 112% | 95.9% | 85.3% | 105% | 110% | 82.8% | 92.4% | 99.9% | 99.8% | 79% | 95.2% | 97.5% | 98.5% | 107% | 104% | 86.3% | 106% | 95% | 99.2%
Cc1[nH]c2ccccc2c1CCNCc1ccc(/C=C/C(=O)NO)cc1 [Panobinostat] (0.1 nM) | 94.7% | 96.2% | 102% | 94.4% | 130% | 99.5% | 98.6% | 98.2% | 101% | 107% | 99.7% | 91.8% | 105% | 105% | 98.9% | 100% | 99.5% | 95.9% | 103% | 104% | 104% | 106% | 110% | 104% | 116% | 100% | 102% | 102% | 111% | 100% | 109% | 106% | 109% | 104% | 108% | 97.2% | 108%
CNC(=O)c1cc(Oc2ccc(NC(=O)Nc3ccc(Cl)c(C(F)(F)F)c3)c(F)c2)ccn1 [Regorafenib] (1 nM) | 96.4% | 104% | 104% | 114% | 90.1% | 97.2% | 110% | 100% | 95.7% | 94.1% | 102% | 99.5% | 100% | 94.2% | 99.9% | 98.5% | 99.9% | 112% | 115% | 83.5% | 88.9% | 108% | 96% | 106% | 131% | 88.5% | 91.4% | 89.7% | 121% | 84.9% | 101% | 103% | 104% | 100% | 102% | 100% | 105%
CC(C)C[C@@H](C(=O)N[C@H](C(=O)OC1CCCC1)c1ccccc1)[C@H](O)C(=O)NO [Tosedostat] (1 nM) | 97.4% | 98.7% | 103% | 102% | 108% | 105% | 106% | 100% | 100% | 103% | 103% | 94.4% | 107% | 104% | 103% | 100% | 100% | 109% | 110% | 86.9% | 101% | 111% | 112% | 94.3% | 106% | 130% | 98.7% | 100% | 93.3% | 118% | 114% | 109% | 100% | 102% | 92.1% | 108% | 108%
CN(C)c1nc(N(C)C)nc(N(C)C)n1 [Altretamine] (1 nM) | 93.1% | 102% | 96.4% | 101% | 103% | 103% | 90.2% | 101% | 106% | 97% | 104% | 102% | 104% | 96.5% | 97.9% | 99.6% | 95% | 108% | 124% | 105% | 94.8% | 93.1% | 105% | 95.1% | 86.3% | 116% | 112% | 88.2% | 111% | 97.3% | 96% | 111% | 110% | 102% | 93.1% | 87.6% | 99.1%
Cc1ccc(NC(=O)c2ccc(CN3CCN(C)CC3)cc2)cc1Nc1nc(-c2cccnc2)cs1 [Masitinib] (1 nM) | 105% | 96.6% | 98.7% | 114% | 98.9% | 102% | 119% | 100% | 96.4% | 95.8% | 103% | 100% | 97.9% | 101% | 100% | 100% | 103% | 104% | 110% | 72.1% | 92.5% | 110% | 100% | 96.8% | 92.2% | 84.1% | 102% | 79.2% | 102% | 109% | 93.4% | 86.5% | 91.7% | 89.9% | 119% | 93.9% | 98.4%
CN(C)CCOc1ccc(/C(=C(/CCCl)c2ccccc2)c2ccccc2)cc1 [Toremifene] (1 nM) | 96.2% | 107% | 98.4% | 106% | 114% | 103% | 106% | 98.6% | 102% | 103% | 103% | 110% | 106% | 104% | 98.7% | 98.5% | 104% | 111% | 119% | 142% | 90.9% | 113% | 104% | 104% | 105% | 107% | 114% | 83.5% | 107% | 106% | 101% | 108% | 126% | 97.7% | 113% | 102% | 112%
C=C1C[C@@H]2[C@H](CC[C@]3(C)C(=O)CC[C@@H]23)[C@@]2(C)C=CC(=O)C=C12 [Exemestane] (1 nM) | 93.6% | 112% | 97.2% | 101% | 88.6% | 108% | 112% | 101% | 97.6% | 101% | 106% | 106% | 105% | 98.6% | 134% | 102% | 91.6% | 107% | 108% | 102% | 88.2% | 117% | 95.2% | 88.7% | 84.5% | 100% | 81.5% | 86.5% | 90.9% | 112% | 93.5% | 89.2% | 95.2% | 85.9% | 114% | 91.5% | 99.2%
